Assays:
[1] = tested on: endogenous target monocytes in human PBMC; assay: PBMC ex vivo monocyte depletion flow cytometry assay (Example 200); format: cell-based; settings: with anti-cotinine antibody (SEQ ID NO: 11/12), 18-24 hours, EC50 in molar, read-out: Ex Vivo Depletion Assay pEC50 (converted)
Outline: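 Monocyte depletion is reported as pEC50, averaged or given individually across runs, and read by flow cytometry staining CD45, CD14 and CD4 with a viability dye. Compounds, diluted four-fold over 11 points from 1 mM DMSO stocks, were combined with 30 μg/mL Fc-enhanced anti-cotinine antibody and human PBMC, then incubated 18-24 h at 37° C.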

[2] = tested on: CCR2 expressing cells (CD11b+Ly6c+Hi) in peripheral blood; assay: In vivo depletion assay, flow cytometry of peripheral blood (Example 201); set-up: species or system human CCR2 knock-in mice (C57 background); settings: hCCR2 knock-in mice, IV 0.1 mpk compound + 10 mpk anti-cotinine antibody (SEQ ID NO: 13/14), peripheral blood at 48 hr
Outline: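 Flow cytometry of blood collected at study termination quantified percent depletion of CD11b+Ly6c+Hi cells and CCR2 expression, using surface markers CD45, CD3, CD11b, Ly6C, human CCR2 after Fc block, with 7AAD viability stain. Compound given in saline:DMSO:PBS formulation, optionally combined with anti-cotinine antibody, incubated 30 min before administration.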

[3] = target: anti-cotinine antibody (SEQ ID NO: 11/12, rabbit variable region with human IgG1 Fc DE mutation); assay: SPR binding of anti-cotinine antibody to ARM compounds, Biacore T200, 37° C. (Example 202); settings: SPR Biacore T200, 37° C., pH 7.4, antibody SEQ ID NO: 11/12 captured on protein A; Kd in molar
Outline: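 Run at 37 °C in 10 mM HEPES pH 7.4, 150 mM NaCl, 0.005% P20, 1% DMSO, with compounds titrated from 200 nM (five 3-fold steps) over protein A–captured antibody. A 1:1 kinetic model on double-referenced data gave rate constants, Kd as koff/kon and residence time 1/koff; results as pKd, run-averaged.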

CC(C)N(C)[C@@H]1CC[C@H](N2CC[C@H](Nc3ncnc4ccc(C(F)(F)F)cc34)C2=O)[C@H](NC(=O)[C@H]2CC[C@@H](NC(=O)CCCOC[C@H]3CC[C@@H](COCCNC(=O)[C@H]4CC(=O)N(C)[C@@H]4c4cccnc4)CC3)CC2)C1 [Example 61, (2S,3S)-N-(2-(((1S,4R)-4-((4-(((1S,4S)-4-(((1R,2S,5R)-5-(Isopropyl(methyl)amino)-2-((S)-2-oxo-3-((6-(trifluoromethyl)quinazolin-4-yl)amino)pyrrolidin-1-yl)cyclohexyl)carbamoyl)cyclohexyl)amino)-4-oxobutoxy)methyl)cyclohexyl)methoxy)ethyl)-1-methyl-5-oxo-2-(pyridin-3-yl)pyrrolidine-3-carboxamide]
EC50 [1]: 0.316 nM | % Depletion of CCR2 expressing cells [2]: 92% | pKd of Antibody for ARM Compound of Formula (I) [3]: 9.558

CC(C)N(C)[C@@H]1CC[C@H](N2CC[C@H](Nc3ncnc4ccc(C(F)(F)F)cc34)C2=O)[C@H](NC(=O)COCCNC(=O)CNC(=O)CCOCCOCCNC(=O)[C@H]2CC(=O)N(C)[C@@H]2c2cccnc2)C1 [Example 80, (2S,3S)-N-(1-(((1R,2S,5R)-5-(Isopropyl(methyl)amino)-2-((S)-2-oxo-3-((6-(trifluoromethyl)quinazolin-4-yl)amino)pyrrolidin-1-yl)cyclohexyl)amino)-1,7,10-trioxo-3,13,16-trioxa-6,9-diazaoctadecan-18-yl)-1-methyl-5-oxo-2-(pyridin-3-yl)pyrrolidine-3-carboxamide]
EC50 [1]: 3.98 nM | % Depletion of CCR2 expressing cells [2]: 89% | pKd of Antibody for ARM Compound of Formula (I) [3]: 9.109

CC(C)N(C)[C@@H]1CC[C@H](N2CC[C@H](Nc3ncnc4ccc(C(F)(F)F)cc34)C2=O)[C@H](Nc2c(NCCOCCOCCOCCOCCOCCNC(=O)[C@H]3CC(=O)N(C)[C@@H]3c3cccnc3)c(=O)c2=O)C1 [Example 85, (2S,3S)-N-(17-((2-(((1R,2S,5R)-5-(Isopropyl(methyl)amino)-2-((S)-2-oxo-3-((6-(trifluoromethyl)quinazolin-4-yl)amino)pyrrolidin-1-yl)cyclohexyl)amino)-3,4-dioxocyclobut-1-en-1-yl)amino)-3,6,9,12,15-pentaoxaheptadecyl)-1-methyl-5-oxo-2-(pyridin-3-yl)pyrrolidine-3-carboxamide]
EC50 [1]: 2 nM | % Depletion of CCR2 expressing cells [2]: 57% | pKd of Antibody for ARM Compound of Formula (I) [3]: 9.6885

CC(C)N(C)[C@@H]1CC[C@H](N2CC[C@H](Nc3ncnc4ccc(C(F)(F)F)cc34)C2=O)[C@H](NC(=O)[C@H]2CC[C@@H](NC(=O)CCOCCNC(=O)COCCNC(=O)[C@H]3CC(=O)N(C)[C@@H]3c3cccnc3)CC2)C1 [Example 98, (2S,3S)-N-(2-(2-((2-(3-(((1S,4s)-4-(((1R,2S,5R)-5-(Isopropyl(methyl)amino)-2-((S)-2-oxo-3-((6-(trifluoromethyl)quinazolin-4-yl)amino)pyrrolidin-1-yl)cyclohexyl)carbamoyl)cyclohexyl)amino)-3-oxopropoxy)ethyl)amino)-2-oxoethoxy)ethyl)-1-methyl-5-oxo-2-(pyridin-3-yl)pyrrolidine-3-carboxamide]
EC50 [1]: 0.398 nM | % Depletion of CCR2 expressing cells [2]: 88% | pKd of Antibody for ARM Compound of Formula (I) [3]: 9.0095

CC(C)N(C)[C@@H]1CC[C@H](N2CC[C@H](Nc3ncnc4ccc(C(F)(F)F)cc34)C2=O)[C@H](NC(=O)CCOCCNC(=O)[C@H]2CC[C@H](NC(=O)COCCNC(=O)[C@H]3CC(=O)N(C)[C@@H]3c3cccnc3)CC2)C1 [Example 108, (2S,3S)-N-(2-(2-(((1R,4S)-4-((2-(3-(((1R,2S,5R)-5-(Isopropyl(methyl)amino)-2-((S)-2-oxo-3-((6-(trifluoromethyl)quinazolin-4-yl)amino)pyrrolidin-1-yl)cyclohexyl)amino)-3-oxopropoxy)ethyl)carbamoyl)cyclohexyl)amino)-2-oxoethoxy)ethyl)-1-methyl-5-oxo-2-(pyridin-3-yl)pyrrolidine-3-carboxamide]
EC50 [1]: 0.398 nM | % Depletion of CCR2 expressing cells [2]: 93% | pKd of Antibody for ARM Compound of Formula (I) [3]: 8.9855

CC(C)N(C)[C@@H]1CC[C@H](N2CC[C@H](Nc3ncnc4ccc(C(F)(F)F)cc34)C2=O)[C@H](NC(=O)CCOCCOCCNC(=O)NCCOCCOCCNC(=O)[C@H]2CC(=O)N(C)[C@@H]2c2cccnc2)C1 [Example 119, (2S,3S)-N-(20-(((1R,2S,5R)-5-(Isopropyl(methyl)amino)-2-((S)-2-oxo-3-((6-(trifluoromethyl)quinazolin-4-yl)amino)pyrrolidin-1-yl)cyclohexyl)amino)-10,20-dioxo-3,6,14,17-tetraoxa-9,11-diazaicosyl)-1-methyl-5-oxo-2-(pyridin-3-yl)pyrrolidine-3-carboxamide]
EC50 [1]: 1.58 nM | % Depletion of CCR2 expressing cells [2]: 77% | pKd of Antibody for ARM Compound of Formula (I) [3]: 9.1735

CC(C)N(C)[C@@H]1CC[C@H](N2CC[C@H](Nc3ncnc4ccc(C(F)(F)F)cc34)C2=O)[C@H](NC(=O)[C@H]2CC[C@H](NC(=O)CCCOCCCCOCCNC(=O)[C@H]3CC(=O)N(C)[C@@H]3c3cccnc3)CC2)C1 [Example 121, (2S,3S)-N-(2-(4-(4-(((1R,4r)-4-(((1R,2S,5R)-5-(Isopropyl(methyl)amino)-2-((S)-2-oxo-3-((6-(trifluoromethyl)quinazolin-4-yl)amino)pyrrolidin-1-yl)cyclohexyl)carbamoyl)cyclohexyl)amino)-4-oxobutoxy)butoxy)ethyl)-1-methyl-5-oxo-2-(pyridin-3-yl)pyrrolidine-3-carboxamide]
EC50 [1]: 1.26 nM | % Depletion of CCR2 expressing cells [2]: 69% | pKd of Antibody for ARM Compound of Formula (I) [3]: 9.332

CC(C)N(C)[C@@H]1CC[C@H](N2CC[C@H](Nc3ncnc4ccc(C(F)(F)F)cc34)C2=O)[C@H](NC(=O)CCNC2CCC3(CC2)CCN(CCCNC(=O)[C@H]2CC(=O)N(C)[C@@H]2c2cccnc2)CC3)C1 [Example 138, (2S,3S)-N-(3-(9-((3-(((1R,2S,5R)-5-(Isopropyl(methyl)amino)-2-((S)-2-oxo-3-((6-(trifluoromethyl)quinazolin-4-yl)amino)pyrrolidin-1-yl)cyclohexyl)amino)-3-oxopropyl)amino)-3-azaspiro[5.5]undecan-3-yl)propyl)-1-methyl-5-oxo-2-(pyridin-3-yl)pyrrolidine-3-carboxamide]
EC50 [1]: 0.158 nM | % Depletion of CCR2 expressing cells [2]: 74.67% | pKd of Antibody for ARM Compound of Formula (I) [3]: 9.0865

CC(C)N(C)[C@@H]1CC[C@H](N2CC[C@H](Nc3ncnc4ccc(C(F)(F)F)cc34)C2=O)[C@H](NC(=O)[C@H]2CC[C@@H](NC(=O)COCCNC(=O)CCOCCNC(=O)[C@H]3CC(=O)N(C)[C@@H]3c3cccnc3)CC2)C1 [Example 152, (2S,3S)-N-(2-(3-((2-(2-(((1S,4s)-4-(((1R,2S,5R)-5-(Isopropyl(methyl)amino)-2-((S)-2-oxo-3-((6-(trifluoromethyl)quinazolin-4-yl)amino)pyrrolidin-1-yl)cyclohexyl)carbamoyl)cyclohexyl)amino)-2-oxoethoxy)ethyl)amino)-3-oxopropoxy)ethyl)-1-methyl-5-oxo-2-(pyridin-3-yl)pyrrolidine-3-carboxamide]
EC50 [1]: 1.26 nM | % Depletion of CCR2 expressing cells [2]: 82% | pKd of Antibody for ARM Compound of Formula (I) [3]: 9.111

CC(C)N(C)[C@@H]1CC[C@H](N2CC[C@H](Nc3ncnc4ccc(C(F)(F)F)cc34)C2=O)[C@H](NC(=O)C2CCN(C3CCN(C(=O)CCCCCCCCCNC(=O)[C@@H]4CC(=O)N(C)[C@H]4c4cccnc4)CC3)CC2)C1 [Example 157, N-((1R,2S,5R)-5-(Isopropyl(methyl)amino)-2-((S)-2-oxo-3-((6-(trifluoromethyl)quinazolin-4-yl)amino)pyrrolidin-1-yl)cyclohexyl)-1′-(10-((2R,3R)-1-methyl-5-oxo-2-(pyridin-3-yl)pyrrolidine-3-carboxamido)decanoyl)-[1,4′-bipiperidine]-4-carboxamide]
EC50 [1]: 0.631 nM | % Depletion of CCR2 expressing cells [2]: 79% | pKd of Antibody for ARM Compound of Formula (I) [3]: 10.135

CC(C)N(C)[C@@H]1CC[C@H](N2CC[C@H](Nc3ncnc4ccc(C(F)(F)F)cc34)C2=O)[C@H](NC(=O)CCOCCNC(=O)COCCNC(=O)CCOCCNC(=O)[C@H]2CC(=O)N(C)[C@@H]2c2cccnc2)C1 [Example 163, (2S,3S)-N-(19-(((1R,2S,5R)-5-(Isopropyl(methyl)amino)-2-((S)-2-oxo-3-((6-(trifluoromethyl)quinazolin-4-yl)amino)pyrrolidin-1-yl)cyclohexyl)amino)-6,12,19-trioxo-3,10,16-trioxa-7,13-diazanonadecyl)-1-methyl-5-oxo-2-(pyridin-3-yl)pyrrolidine-3-carboxamide]
EC50 [1]: 0.871 nM | % Depletion of CCR2 expressing cells [2]: 89% | pKd of Antibody for ARM Compound of Formula (I) [3]: 9.07

From patent publication US12521393B2, “Cytotoxicity targeting chimeras for CCR2-expressing cells” (GLAXOSMITHKLINE INTELLECTUAL PROPERTY DEVELOPMENT LIMITED, priority 2021, dated 2026)
